Laboratory results from patent publication US20130040331A1, “LABEL-FREE METHODS RELATED TO hERG POTASSIUM ION [sequence]” (CORNING INCORPORATED, priority 2009, published 2013).

Key:
[1] = tested on: mallotoxin DMR signal in HT29 cells; test: DMR modulation index against the mallotoxin DMR signal in HT29 cells; assay type: cell-based, human
Excerpt: (§1) A “molecule modulation index” or like terms is an index to display the ability of the molecule to modulate the biosensor output signals of the panels of markers acting on the panel of cells. The modulation index is generated by normalizing a specific biosensor output signal parameter of a response of a cell upon stimulation with a marker in the presence of a molecule against that in the absence of any molecule.
(§2) Epic® wavelength interrogation system (Corning Inc., Corning, N.Y.) was used for whole cell sensing. This system consists of a temperature-control unit, an optical detection unit, and an on-board liquid handling unit with robotics. The detection unit is centered on integrated fiber optics, and enables kinetic measures of cellular responses with a time interval of ˜15 sec.
(§3) Cells were plated in 384-well Epic® cell culture treated plate (Corning Cat#5040) 16-20 hours before assay (15000 cells/well for HEK293 and HEK-hERG cells, 30000 cells/well for HT29 cells). For both HEK-hERG and its parental HEK293 cells, each well was coated with 10 μl 5 μg/ml fibronectin. One hour before assay, cells were washed twice on a BioTek ELx405 Select washer with Hank's Balanced Salt Solution (HBSS) containing 20 mM Hepes. Cells were incubated in 40 μl/well HBSS at 28° C. inside the Epic system for one hour. For each assay, a 2-min baseline was initiated, followed by addition of 10 μl compound solutions (5×) and the cell responses were recorded continuously for one hour.
(§4) All studies were carried out at a controlled temperature (28° C.). At least two independent sets of experiments, each with at least three replicates, were performed. […] All dose-dependent responses were analyzed using non-linear regression method with the GraphPad Prism 5.
(§5) The DMR modulation index was generated by normalizing the mallotoxin DMR signal in either cell line in the presence of compound […] to its corresponding DMR signal in the absence of the compound, and the percentage of modulation was based on the amplitude of the mallotoxin DMR signal at a specific time (−18 min after stimulation for HEK-hERG cells, and ˜50 min after stimulation for HT29 cells, respectively). Mallotoxin is known to display polypharmacology. It is also known to be a protein kinase C (PKC) inhibitor; and PKC is a downstream signaling component of hERG activation. Thus, it would be difficult or almost impossible to assign the mode(s) of action of mallotoxin to be a hERG activator when either cell line is individually assayed with the label-free biosensor (i.e., Epic® system). […] However, combining the primary DMR profiles of a compound across the three cell lines tested with the modulation index of the compound against the mallotoxin responses in both HT29 and […] cells can correctly identify whether the compound is a hERG activator or not. The results shown in FIG. 1 indicate that indeed mallotoxin is a hERG activator; and the activation of hERG can result in detectable biosensor responses in the two hERG expressing cell lines.

[2] = tested on: HT29 cells; test: Label-free RWG biosensor (Epic) DMR assay, agonism mode, HT29 cells endogenously expressing hERG; assay type: cell-based, human
Description: as §2, §3, §4
(§6) Three different types of cells: human colon cancerous cell line HT-29, HEK293 and its engineered HEK-hERG cell lines were used. HT-29 is known to endogenously express hERG channels. HEK293 is a native cell line without endogenously expressed hERG channels, while HEK-hERG is an engineered HEK293 cells having stably expressed hERG channels. Mallotoxin, a newly discovered hERG activator, was used to activate hERG channels at or near physiological conditions (i.e., 1×HBSS buffered conditions).

[3] = biological target: T1, hERG channel (Homo sapiens, UniProt Q12809); details: oocytes, cited from earlier work
[4] = tested on: mallotoxin DMR signal in HEK-hERG cells; assay type: cell-based, human
Excerpt: as §1, §2, §3, §4, §5

[5] = tested on: HEK-hERG cells; test: Label-free RWG biosensor (Epic) DMR assay, agonism mode, HEK-hERG cells stably expressing hERG; assay type: cell-based, human
Description: as §2, §3, §4, §6

[6] = tested on: HEK-hERG cells; assay type: cell-based, human; details: microscopic imaging, data not shown
Description: To confirm these findings, several follow-up studies were carried out.

[7] = tested on: HEK293 cells; test: Label-free RWG biosensor (Epic) DMR assay, agonism mode, native HEK293 cells without hERG; assay type: cell-based, human; details: compound at 16 micromolar
Description: as §2, §3
All studies were carried out at a controlled temperature (28° C.). At least two independent sets of experiments, each with at least three replicates, were performed. […] All dose-dependent responses were analyzed using non-linear regression method with the GraphPad Prism 5. […]

[8] = biological target: T1, hERG channel; details: 10 micromolar; cited from earlier work
[9] = pretreatment with 16 micromolar compound, then 16 micromolar mallotoxin

T1 sequence (Q12809 whole entry): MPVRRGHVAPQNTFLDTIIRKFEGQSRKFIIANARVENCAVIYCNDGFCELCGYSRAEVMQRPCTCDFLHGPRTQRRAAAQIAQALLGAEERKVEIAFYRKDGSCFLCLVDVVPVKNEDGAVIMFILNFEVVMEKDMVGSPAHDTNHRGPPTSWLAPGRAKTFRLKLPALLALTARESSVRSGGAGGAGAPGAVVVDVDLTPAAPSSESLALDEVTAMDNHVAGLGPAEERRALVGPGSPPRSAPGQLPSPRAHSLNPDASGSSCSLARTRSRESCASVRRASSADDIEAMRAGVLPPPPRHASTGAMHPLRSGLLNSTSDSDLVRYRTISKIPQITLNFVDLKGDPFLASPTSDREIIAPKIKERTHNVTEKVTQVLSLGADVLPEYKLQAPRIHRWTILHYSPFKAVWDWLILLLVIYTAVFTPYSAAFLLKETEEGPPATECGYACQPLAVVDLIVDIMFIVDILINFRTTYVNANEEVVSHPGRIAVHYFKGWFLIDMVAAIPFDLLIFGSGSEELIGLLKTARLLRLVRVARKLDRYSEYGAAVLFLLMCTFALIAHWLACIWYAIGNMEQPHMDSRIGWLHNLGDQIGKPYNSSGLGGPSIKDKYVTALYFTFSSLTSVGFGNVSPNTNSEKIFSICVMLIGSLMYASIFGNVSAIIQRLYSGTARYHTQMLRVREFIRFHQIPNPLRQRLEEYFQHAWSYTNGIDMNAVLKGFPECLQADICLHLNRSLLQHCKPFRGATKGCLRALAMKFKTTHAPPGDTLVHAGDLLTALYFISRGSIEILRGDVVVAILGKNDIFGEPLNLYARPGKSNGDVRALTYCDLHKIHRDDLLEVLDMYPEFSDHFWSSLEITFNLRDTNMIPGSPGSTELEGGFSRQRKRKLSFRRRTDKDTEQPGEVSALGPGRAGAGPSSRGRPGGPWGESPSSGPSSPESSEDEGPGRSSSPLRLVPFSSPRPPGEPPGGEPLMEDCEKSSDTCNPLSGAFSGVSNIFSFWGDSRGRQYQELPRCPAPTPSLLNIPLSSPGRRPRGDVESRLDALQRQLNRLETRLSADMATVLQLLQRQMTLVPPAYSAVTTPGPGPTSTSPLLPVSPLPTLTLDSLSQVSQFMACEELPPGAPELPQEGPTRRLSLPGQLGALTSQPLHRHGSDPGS

Which “modulation index against mallotoxin in HT29 cells” value ([1]; compound 10 micromolar, mallotoxin 16 micromolar, amplitude ~50 min after stimulation) does the source give for `O=C(O)c1ccccc1Nc1cccc(C(F)(F)F)c1` [flufenamic acid] here?
Its value is −90%.

What about the “modulation of the mallotoxin DMR signal in HT29 cells” value ([1]; compound at 10 micromolar, mallotoxin 16 micromolar) of the same compound?
Its value is “selectively attenuated”.

And the “DMR signal in HT29 cells” value ([2]; compound at 10 μM)?
The value was “robust DMR signals”.

What about the “amplitude of outward currents evoked by depolarizing pulses” value ([3]; 100 to 500 μM) of the same compound?
The value was “enhanced the amplitude of outward currents”.

What about the “activation and deactivation rate of hERG channels” value [3] of the same compound?
The value was “accelerated the activation rate of hERG channels and decelerated their deactivation”.

What about the “score of modulation index in coordination, HEK-hERG coordinate” value ([4]; 10% modulation = 1 score unit) of the same compound?
Its value is 1.

What about the “modulation index against mallotoxin in HEK-hERG cells” value ([4]; compound 10 micromolar, mallotoxin 16 micromolar, amplitude 18 min after stimulation) of the same compound?
The value was “~+12%”.

What about the “DMR signal in HEK-hERG cells” value ([5]; compound at 10 μM) of the same compound?
The value was “robust DMR signals”.

Which results are given for `CC(=O)c1c(O)c(C)c(O)c(Cc2c(O)c3c(c(C(=O)/C=C/c4ccccc4)c2O)OC(C)(C)C=C3)c1O` [mallotoxin]?
cell toxicity at high doses [6]: caused cell apoptosis; DMR signal in HEK293 cells [7]: net-zero DMR signal; modulation of the mallotoxin DMR signal in HT29 cells [1, 9]: completely caused the desensitization; DMR signal in HT29 cells ([2]; compound at 16 micromolar): robust DMR signal; modulation of the mallotoxin DMR signal in HEK-hERG cells [4, 9]: completely caused the desensitization; EC50 ([5]; amplitudes at 18 min after stimulation, read-out: apparent EC50 of dose-dependent DMR signal in HEK-hERG cells): ~25 µM; DMR signal in HEK-hERG cells ([5]; compound at 16 micromolar): robust DMR signal; shift of half maximal activation voltage (V1/2) to the hyperpolarizing direction [8]: more than 25 mV
